Reference: patent publication US4107309A, “Substituted imidazo[1,2-d]-as-triazines” (American Cyanamid Company, priority 1977, dated 1978)

Columns and labels:
[1] = system: mouse passive cutaneous anaphylaxis (IgE and IgG lesions); assay: mouse passive cutaneous anaphylaxis (PCA) test; format: in vivo; details: 50 mg./kg intraperitoneally at -1 hour; active if IgE or IgG lesion area significantly smaller than control
Procedure: Anti-asthma activity was determined by the mouse passive cutaneous anaphylaxis (PCA) test as follows.
Female mice (Charles River Breeding Labs.), weighing 20-22 gm. are inoculated intraperitoneally at approximately three weeks of age with 0.5 ml. of Timothy pollen antigen in complete Freund's adjuvant. The sensitizing antigen is prepared by suspending 60 mg. of Timothy antigen (Phleum pratense) in 6 ml. of Freund's Complete Adjuvant (Difco Labs.). Approximately 3-5 weeks after inoculation, ascitic fluid is removed from responding mice and tested for IgE and IgG type antibody by mouse PCA as follows:
Samples of ascitic fluid are diluted 1:10 and 50 μl are injected intradermally into five mice. The mice are challenged intravenously with antigen and Evans blue dye 48 hours later. Fifteen minutes after challenge, the dorsal skin is removed and examined for blue spots. […]
At -50 hour (relative to antigen challenge at 0 hour) 50 μl of IgE is injected intradermally on the left side of a 25 gm. female mouse, posterior to the axilla at the level of the diaphragm. […] Challenge and reading are performed in serial order so that reading of the assay is essentially blind. […] The largest and smallest diameters of the lesion and a qualitative estimate of intensity of color are recorded. […] IgE and IgG lesions are analyzed independently. […]

[2] = system: mouse skin cyclic-AMP phosphodiesterase; assay: mouse skin phosphodiesterase (PDE) inhibition test; format: biochemical; details: for Mouse Skin Phosphodiesterase: test compound 10 ug./ml, active if it inhibits more than theophylline (to 50% of control at 1 mM or to 80% of control at 0.05 mM); for phosphodiesterase activity, % of control: reference level used as activity criterion
Description: The novel compounds of the present invention are active in inhibiting the enzyme cyclic-AMP phosphodiesterase which is responsible for the metabolism of cyclic adenosine monophosphate which is usually simply referred to as cyclic AMP. As such, they are useful in the treatment of psoriasis, a disease in which the epidermal cyclic AMP levels are reported to be decreased. Also as such, they are useful in the treatment of asthma, since elevated levels of cyclic AMP in most cells are reported to inhibit the release of histamine and other mediators and since elevated levels of cyclic AMP in bronchial smooth muscle are reported to cause bronchodilation. See Ann. Reports in Medicinal Chem., Vol. 10, 197 (1975).
The inhibition of phosphodiesterase is determined by the mouse skin phosphodiesterase (PDE) inhibition test as follows:
Hairless mice (Jackson Laboratories), 3-4 months old are killed by cervical dislocation and their skins removed. Epidermal slices are taken at a thickness of 0.2 mm. The slices are weighed and homogenized at 100 mg./ml. in ice-cold tris-HCl buffer (0.04M, pH 8, containing 0.005M MgCl2). Homogenates are centrifuged at 17,000 × gravity for 30 minutes. The supernatants are divided into aliquots which are stored at -20° C. Dilutions of the PDE are made with tris-HCl buffer just prior to use.
AG1-X2®, 200-400 mesh (a polystyrene anionic exchange resin 8% cross linked from Bio-Rad Lab.) is washed with 0.5N HCl, 0.5N NaOH, 0.5N HCl and repeatedly with double distilled water to pH 5. The resin is allowed to settle and 2 volumes of water are added to one volume of settled resin.
^3 H-Cyclic AMP (21 c/m mole, Schwarz-Mann Inc.) is purified by addition of 0.1 to 0.2 ml. of stock (in 50% ethanol) to 5 ml. of anion exchange resin and 0.4 ml. of tris-HCl buffer. The mixture is vortexed, centrifuged at 1200 × gravity for 5 minutes and the supernatant is discarded. The resin is washed in the same manner eight more times with two volumes of tris-HCl buffer. Resin bound ^3 H-cyclic AMP is eluted by two successive washings with 4 ml. of 0.025N HCl (resin pH = 2.0). After centrifugation, the pooled acid washes containing ^3 H-cyclic AMP are aliquoted and lyophilized. The material is stored dry at -20° C. and reconstituted with tris-HCl buffer just prior to use with a volume sufficient to give approximately 200,000 CPM/0.1 ml.
PDE activity is measured by the method of W. J. Thompson and N. N. Appleman, Biochemistry 10, 311 (1971). Assays are conducted in 12 × 75 mm. polypropylene test tubes. The reaction mixture consists of ^3 H-cyclic AMP (200,000 CPM), unlabeled cyclic AMP, PDE (100 ug. protein) and test compounds which are prepared by dissolving the compounds in methanol at a concentration of 10 mg./ml. and then dilution of tris-HCl buffer. Final concentration of the test compounds in the incubation mixture is 10 ug./ml. The total volume of the incubation mixture is increased to 0.4 ml. with tris-HCl buffer containing 3.75 millimoles of 2-mercaptoethanol. The enzyme is incubated for 10 minutes at room temperature in the presence of the test compounds or buffer prior to the addition of the mixture of ^3 H-cyclic AMP and unlabeled cyclic AMP. Reactions are run at 30° C. for 15 minutes and then terminated by immersing in acetone-dry ice until frozen, followed by boiling for 3 minutes. […]

| SMILES | MOUSE PCA TEST [1] | Mouse Skin Phosphodiesterase [2] | phosphodiesterase activity, % of control ([2]; 0.05 mM concentration) | phosphodiesterase activity, % of control ([2]; 1 mM concentration) |
| --- | --- | --- | --- | --- |
| CN1CCN(c2nncc3nccn23)CC1 [5-(4-Methyl-1-piperazinyl)-imidazo[1,2-d]-as-triazine] | Accept | Active |  |  |
| c1coc(CNc2nncc3nccn23)c1 [5-(Furfurylamino)-imidazo[1,2-d]-as-triazine] |  | Active |  |  |
| CSc1nncc2nccn12 [5-(Methylthio)-imidazo[1,2-d]-as-triazine] |  | Active |  |  |
| Cn1c(=O)c2[nH]cnc2n(C)c1=O [theophylline, reference compound] |  |  | 80 % of control | 50 % of control |
